Measured values: patent US11324720B2, “Antiproliferative DNA polymerase inhibitor” (NEW YORK MEDICAL COLLEGE, priority 2018, dated 2022)

Key:
HCC1395 cells = assay: MTT assay with PARP inhibitors with or without zelpolib; format: cell-based, human; conditions: for sensitivity of HCC1395 cells to the PARP inhibitor alone: HR-proficient triple-negative breast cancer cell line
Procedure: However, there have been minimal clinical benefits for HR-proficient cancers^37-41. Since zelpolib can inhibit HR, we explored the effect of zelpolib in combination with PARP inhibitors on HR-proficient cancer cells. The hypothesis is that zelpolib will lead to an HR-defect through inhibition of Pol δ and render HR-proficient cells sensitive to PARP inhibition. […] The cells were treated with increasing concentrations of PARP inhibitor Niraparib (FIG. 5B) or Rucaparib (FIG. 5C) in the absence or presence of 2.5 μM zelpolib for 48 hrs. The number of cells were then analyzed by MTT assay.
(§1) Human cancer cells (5×10^3-7.5×10^3) were initially seeded in 96-well plates (Cellstar) containing 0.2 ml media per well. After 24 hrs, these cells were treated with variable concentrations drug combinations for 48-72 hrs. Subsequently, 4,5-dimethylthiazol-2-yl-2,5-diphenyltetrazolium bromide (MTT) (20 μl of 5 mg/ml) was added to each well for 3 hrs. Formazan crystals were then dissolved in 150 μl DMSO and optical density was read at 490 nm^25. All experiments were performed in triplicates. Results were analyzed by GraphPad Prism. Data represent mean value±SEM for each concentration of inhibitor combinations.

MCF7 cells = assay: Cell proliferation assay, MTT method; format: cell-based, human; conditions: 72 h
Text: DNA replication precedes cell division. Thus, cancer cells cannot divide and proliferate without successful chromosomal duplication. A DNA polymerase inhibitor should inhibit cancer cell proliferation. We characterized the antiproliferative properties of zelpolib on a number of cell lines originated from pancreatic cancer (BxPC-3) and breast cancer (MCF7 for ER+ breast cancer). In addition, we developed a cisplatin resistant subline of a pancreatic cancer cell line, R-BxPC3 for our studies as well. We used the MTT method^25 for analyzing cell proliferation. This assay is based on the reduction of 3-(4,5-dimethylthiazol-2-yl)-2,5-diphenyltetrazolium bromide by live cells to an insoluble formazon, which were subsequently dissolved in DMSO and quantified by UV absorbance. Therefore, the cell number is proportional to the optical density in the established linear region. […] The plateau phenomena indicate inhibition of proliferation without cell killing, similar to these observed from hydroxyurea^26, aphidicolin^27, and to a certain extent, methotrexate treatments^28. Direct inhibition of DNA polymerase activity provides a unique mechanism that is not employed by any of the current cancer therapeutics. We selected a number of most widely prescribed chemotherapeutics with distinct mechanisms to compare their antiproliferative potential in the 2 cancer cell lines. We included alkylating agent cisplatin, antimetabolites methotrexate and 5-flourouracil (5FU)^29-31. […] Whereas the comparison with cisplatin is biphasic.
as §1

[1] = test system: BRCA1/2 mutant population; conditions: maintenance therapy; cited from earlier work

## NC(=O)c1cccc2cn(-c3ccc([C@@H]4CCCNC4)cc3)nc12 [Niraparib]
HCC1395 cells; HCC1395 proliferation, 48 hrs
  Niraparib concentration with 2.5 μM zelpolib that achieves the effect of 25 μM Niraparib alone: 5 µM
HCC1395 cells
  sensitivity of HCC1395 cells to the PARP inhibitor alone: insensitive

## CNCc1ccc(-c2[nH]c3cc(F)cc4c3c2CCNC4=O)cc1 [Rucaparib]
HCC1395 cells
  sensitivity of HCC1395 cells to the PARP inhibitor alone: insensitive

## N.N.[Cl][Pt][Cl] [cisplatin, reference compound]
MCF7 cells
  antiproliferative activity, zelpolib versus cisplatin: more effective beyond 5 μM

## O=C(c1cc(Cc2n[nH]c(=O)c3ccccc23)ccc1F)N1CCN(C(=O)C2CC2)CC1 [olaparib]
[1]
  hazard ratio in progression-free survival: 0.18
  reduction in the risk of progression or death: 82%
